Values of other authors, collected in patent US9402854B2, “Pharmaceutical composition” (Cipla Limited, priority 2012, dated 2016).

Conditions: versus racemic formoterol (contains both (S,S) and (R,R) enantiomers)

SMILES: COc1ccc(C[C@@H](C)NC[C@H](O)c2ccc(O)c(NC=O)c2)cc1 [Arformoterol]
- potency relative to racemic formoterol: two-fold greater potency
